Measurements published in ChEMBL document CHEMBL1201862, “PubChem BioAssay data set” (2004).
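Briefly, cells in 96-well plates were exposed to five compound concentrations for 48 h, and endpoints were estimated by linear interpolation. Here, GI50 denotes the concentration required for 50% inhibition of growth.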 Activity calls are given as the source filed them. Cut-off read from the data, not from the text of the source: active = GI50 up to about 1.1 µM and inactive = higher.

Experiments:
Assay in all cases: growth of human tumour cells (NCI), 48 h
UO-31 = test system: UO-31
SF-268 = test system: SF-268
UACC-62 = test system: UACC-62
Malme-3M = test system: Malme-3M
IGROV-1 = test system: IGROV-1
CAKI-1 = test system: CAKI-1
Hs-578T = test system: Hs-578T
ACHN = test system: ACHN
SK-MEL-5 = test system: SK-MEL-5
SR = test system: SR
SK-OV-3 = test system: SK-OV-3
CCRF-CEM = test system: CCRF-CEM
LOX IMVI = test system: LOX IMVI
HL-60 = test system: HL-60
COLO 205 = test system: COLO 205
786-0 = test system: 786-0
SW-620 = test system: SW-620
SNB-75 = test system: SNB-75
MOLT-4 = test system: MOLT-4
OVCAR-4 = test system: OVCAR-4
K562 = test system: K562
MDA-MB-435 = test system: MDA-MB-435
SK-MEL-28 = test system: SK-MEL-28
A549 = test system: A549
NCI-H522 = test system: NCI-H522
NCI-H460 = test system: NCI-H460
MDA-MB-231 = test system: MDA-MB-231
RPMI-8226 = test system: RPMI-8226
SF-295 = test system: SF-295
SF-539 = test system: SF-539
OVCAR-3 = test system: OVCAR-3
BT-549 = test system: BT-549
MCF7 = test system: MCF7
T47D = test system: T47D
NCI-H226 = test system: NCI-H226
OVCAR-8 = test system: OVCAR-8
UACC-257 = test system: UACC-257
U-251 = test system: U-251
HOP-92 = test system: HOP-92
RXF 393 = test system: RXF 393
HCT-116 = test system: HCT-116
A498 = test system: A498
OVCAR-5 = test system: OVCAR-5
SK-MEL-2 = test system: SK-MEL-2
HT-29 = test system: HT-29
KM12 = test system: KM12
TK-10 = test system: TK-10
M14 = test system: M14
PC-3 = test system: PC-3
HCC 2998 = test system: HCC 2998
EKVX = test system: EKVX
HCT-15 = test system: HCT-15
NCI-H23 = test system: NCI-H23
NCI/ADR-RES = test system: NCI/ADR-RES
DU-145 = test system: DU-145
HOP-62 = test system: HOP-62
SNB-19 = test system: SNB-19
MDA-N = test system: MDA-N
SN12C = test system: SN12C

SMILES: CC(=O)O[C@H]1C(=O)[C@@]2(C)[C@H]([C@H](OC(=O)c3ccoc3)[C@]3(O)C[C@H](OC(=O)[C@H](O)[C@@H](NC(=O)c4ccccc4)c4ccccc4)C(C)=C1C3(C)C)[C@]1(OC(C)=O)CO[C@@H]1C[C@@H]2O
- GI50 (UO-31): > 8.91 µM (inactive)
- GI50 (SF-268): 0.0583 µM (active)
- GI50 (UACC-62): 0.053 µM (active)
- GI50 (Malme-3M): 0.0316 µM (active)
- GI50 (IGROV-1): 0.0962 µM (active)
- GI50 (CAKI-1): 8.18 µM (inactive)
- GI50 (Hs-578T): 0.0249 µM (active)
- GI50 (ACHN): 2.1 µM (inactive)
- GI50 (SK-MEL-5): 0.0467 µM (active)
- GI50 (SR): 0.026 µM (active)
- GI50 (SK-OV-3): 0.0578 µM (active)
- GI50 (CCRF-CEM): 0.0566 µM (active)
- GI50 (LOX IMVI): 0.032 µM (active)
- GI50 (HL-60): 0.0107 µM (active)
- GI50 (COLO 205): 0.0515 µM (active)
- GI50 (786-0): 0.38 µM (active)
- GI50 (SW-620): 0.0448 µM (active)
- GI50 (SNB-75): 0.141 µM (active)
- GI50 (MOLT-4): 0.045 µM (active)
- GI50 (OVCAR-4): > 12.5 µM (inactive)
- GI50 (K562): 0.0324 µM (active)
- GI50 (MDA-MB-435): 0.00456 µM (active)
- GI50 (SK-MEL-28): > 12.5 µM (inactive)
- GI50 (A549): 0.115 µM (active)
- GI50 (NCI-H522): 0.0434 µM (active)
- GI50 (NCI-H460): 0.0524 µM (active)
- GI50 (MDA-MB-231): 3.05 µM (inactive)
- GI50 (RPMI-8226): 0.00904 µM (active)
- GI50 (SF-295): 0.582 µM (active)
- GI50 (SF-539): 0.0286 µM (active)
- GI50 (OVCAR-3): 0.0296 µM (active)
- GI50 (BT-549): 0.615 µM (active)
- GI50 (MCF7): 0.0138 µM (active)
- GI50 (T47D): 0.0461 µM (active)
- GI50 (NCI-H226): 0.11 µM (active)
- GI50 (OVCAR-8): 0.0798 µM (active)
- GI50 (UACC-257): 0.538 µM (active)
- GI50 (U-251): 0.0811 µM (active)
- GI50 (HOP-92): > 12.5 µM (inactive)
- GI50 (RXF 393): 0.277 µM (active)
- GI50 (HCT-116): 0.0186 µM (active)
- GI50 (A498): 0.811 µM (active)
- GI50 (OVCAR-5): 0.0953 µM (active)
- GI50 (SK-MEL-2): 0.0448 µM (active)
- GI50 (HT-29): 0.0307 µM (active)
- GI50 (KM12): 0.0344 µM (active)
- GI50 (TK-10): > 2.99 µM (inactive)
- GI50 (M14): 0.129 µM (active)
- GI50 (PC-3): 0.053 µM (active)
- GI50 (HCC 2998): 0.116 µM (active)
- GI50 (EKVX): > 9.59 µM (inactive)
- GI50 (HCT-15): 4.24 µM
- GI50 (NCI-H23): > 12.5 µM (inactive)
- GI50 (NCI/ADR-RES): > 10.9 µM (inactive)
- GI50 (DU-145): 0.352 µM (active)
- GI50 (HOP-62): 0.206 µM (active)
- GI50 (SNB-19): 0.145 µM (active)

SMILES: O=c1[nH]c(-n2[nH]c3c(c2=O)CCCC3)nc(O)c1-c1ccccc1
- GI50 (UO-31): > 100 µM (inactive)
- GI50 (SF-268): > 100 µM (inactive)
- GI50 (UACC-62): > 100 µM (inactive)
- GI50 (Malme-3M): > 100 µM (inactive)
- GI50 (IGROV-1): > 100 µM (inactive)
- GI50 (CAKI-1): > 100 µM (inactive)
- GI50 (Hs-578T): > 100 µM (inactive)
- GI50 (ACHN): > 100 µM (inactive)
- GI50 (SK-MEL-5): > 100 µM (inactive)
- GI50 (SR): > 100 µM (inactive)
- GI50 (SK-OV-3): > 100 µM (inactive)
- GI50 (CCRF-CEM): > 100 µM (inactive)
- GI50 (HL-60): > 100 µM (inactive)
- GI50 (COLO 205): > 100 µM (inactive)
- GI50 (786-0): > 100 µM (inactive)
- GI50 (SW-620): > 100 µM (inactive)
- GI50 (MOLT-4): > 100 µM (inactive)
- GI50 (OVCAR-4): > 100 µM (inactive)
- GI50 (K562): > 100 µM (inactive)
- GI50 (MDA-MB-435): > 100 µM (inactive)
- GI50 (SK-MEL-28): > 100 µM (inactive)
- GI50 (NCI-H522): > 100 µM (inactive)
- GI50 (NCI-H460): > 100 µM (inactive)
- GI50 (MDA-MB-231): > 100 µM (inactive)
- GI50 (RPMI-8226): > 100 µM (inactive)
- GI50 (SF-295): > 100 µM (inactive)
- GI50 (BT-549): > 100 µM (inactive)
- GI50 (T47D): > 100 µM (inactive)
- GI50 (NCI-H226): > 100 µM (inactive)
- GI50 (OVCAR-8): > 100 µM (inactive)
- GI50 (UACC-257): > 100 µM (inactive)
- GI50 (U-251): > 100 µM (inactive)
- GI50 (HOP-92): > 100 µM (inactive)
- GI50 (RXF 393): > 100 µM (inactive)
- GI50 (HCT-116): > 100 µM (inactive)
- GI50 (A498): > 100 µM (inactive)
- GI50 (MDA-N): > 100 µM (inactive)
- GI50 (OVCAR-5): > 100 µM (inactive)
- GI50 (SK-MEL-2): > 100 µM (inactive)
- GI50 (HT-29): > 100 µM (inactive)
- GI50 (KM12): > 100 µM (inactive)
- GI50 (SN12C): > 100 µM (inactive)
- GI50 (TK-10): > 100 µM (inactive)
- GI50 (M14): > 100 µM (inactive)
- GI50 (PC-3): > 100 µM (inactive)
- GI50 (EKVX): > 100 µM (inactive)
- GI50 (HCT-15): > 100 µM
- GI50 (NCI-H23): > 100 µM (inactive)
- GI50 (NCI/ADR-RES): > 100 µM (inactive)
- GI50 (DU-145): > 100 µM (inactive)
- GI50 (SNB-19): > 100 µM (inactive)
